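These data come from cells grown in 96-well plates and exposed to compound for 48 hours at five concentrations. The concentration for 50% growth inhibition is given as GI50. At the TGI there is no net growth.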 Where only a bound is given, the exact number is not on record here.

Our source for the GI50 and TGI values is PubChem BioAssay (NCI).

Among the test systems are SF-539 CNS; KM12 colon; ACHN renal; NCI-H23 lung; SN12C renal; DU-145 prostate; SK-MEL-2 melanoma; UACC-62 melanoma; A549 NSCLC; SNB-75 CNS.
Common to all, as to test: NCI-60 cell line screen, 48 h

Regarding `CCCN1C(=O)N(CCC)C2C1NC(=S)N2/N=C/C=C/c1ccccc1OC` (stereo not given), the GI50 with SF-539 CNS was 330 nM; with KM12 colon it was 0.422 µM; with ACHN renal it was 631 nM; in the test with NCI-H23 lung, 2660 nM; in the test with SN12C renal, 1840 nM; in the test with DU-145 prostate, 0.557 µM. Moreover, the GI50 was 2080 nM in the test on SK-MEL-2 melanoma, 599 nM with UACC-62 melanoma, 0.868 µM with A549 NSCLC and 0.233 µM in the test on SNB-75 CNS. Moreover, the TGI is 2.31 µM in the test with SF-539 CNS; above 100 µM in the test on KM12 colon; 81.1 µM with ACHN renal; above 100 µM with NCI-H23 lung; 33.3 µM in the test on SN12C renal; above 100 µM with DU-145 prostate. Moreover, the TGI in the test on SK-MEL-2 melanoma is above 63.4 µM; in the test on UACC-62 melanoma, 47 µM; with A549 NSCLC it was above 100 µM; in the test on SNB-75 CNS, 2.3 µM.

In the case of `CC[C@H]1[C@@H]2C=C[C@@H]3[C@H]4C/C=C\C(=O)NCCC[C@@H]5NC(=O)/C(=C(O)/C=C/[C@@H]4C[C@@H]3[C@H]2C[C@H]1C)C5=O`, the GI50 is 1300 nM with SF-539 CNS; 3.03 µM in the test with KM12 colon; 420 nM in the test on ACHN renal; 1810 nM in the test on NCI-H23 lung; 569 nM in the test with SN12C renal; 0.715 µM with DU-145 prostate. Further, the GI50 in the test on SK-MEL-2 melanoma is 2540 nM; with UACC-62 melanoma it was 1660 nM; in the test with A549 NSCLC, 2 µM; in the test on SNB-75 CNS, 0.415 µM. Also, the TGI in the test with SF-539 CNS amounted to 2.72 µM; with KM12 colon it was 9.88 µM; with ACHN renal, 1.57 µM; with NCI-H23 lung it was 4.28 µM; with SN12C renal it was 1.99 µM; in the test on DU-145 prostate, 1.94 µM. For the same molecule, the TGI in the test with SK-MEL-2 melanoma came to 6.01 µM; in the test with UACC-62 melanoma, 3.17 µM; in the test with A549 NSCLC, 3.99 µM; in the test with SNB-75 CNS it was 1.58 µM.

With `COc1ccc(/C=C2/N=C(c3ccccc3)N(c3c(C)n(C)n(-c4ccccc4)c3=O)C2=O)cc1OC`, the GI50 is above 100000 nM in the test with SF-539 CNS; above 100 µM in the test with KM12 colon; above 100000 nM in the test with ACHN renal; above 100000 nM in the test with NCI-H23 lung; above 100000 nM with SN12C renal; above 100 µM in the test on DU-145 prostate. In addition, the GI50 is above 100000 nM with SK-MEL-2 melanoma, above 100000 nM in the test on UACC-62 melanoma, above 100 µM with A549 NSCLC and 86.4 µM in the test with SNB-75 CNS. Also, the TGI in the test on SF-539 CNS, in the test with KM12 colon, in the test on ACHN renal, with NCI-H23 lung, with SN12C renal and with DU-145 prostate was above 100 µM throughout. Moreover, the TGI with SK-MEL-2 melanoma, in the test with UACC-62 melanoma, in the test on A549 NSCLC and in the test on SNB-75 CNS was above 100 µM in each case.

`O=C(c1ccccc1)c1cc2ccccc2o1`: the GI50 with SF-539 CNS was above 100000 nM; with KM12 colon, above 100 µM; with ACHN renal, above 100000 nM; in the test with NCI-H23 lung it was above 100000 nM; in the test on SN12C renal, above 100000 nM; in the test with DU-145 prostate, 73.6 µM. The GI50 with SK-MEL-2 melanoma is above 100000 nM; in the test on UACC-62 melanoma it was above 100000 nM; in the test with A549 NSCLC, 95 µM; in the test with SNB-75 CNS it was 63.2 µM. The TGI with SF-539 CNS, in the test with KM12 colon, with ACHN renal, in the test with NCI-H23 lung, with SN12C renal and with DU-145 prostate was above 100 µM throughout. Also, the TGI in the test on SK-MEL-2 melanoma, in the test with UACC-62 melanoma, in the test with A549 NSCLC and with SNB-75 CNS was above 100 µM each time.

In the case of `COc1cc(Cn2c(-c3ccccc3)c(Cl)c3c2-c2oncc2CC3)cc(OC)c1`, the GI50 was 8190 nM in the test on SF-539 CNS; 4.19 µM in the test on KM12 colon; 9310 nM in the test with ACHN renal; 6150 nM in the test on NCI-H23 lung; 12700 nM in the test with SN12C renal; 26.6 µM in the test with DU-145 prostate. Moreover, the GI50 is 10600 nM with SK-MEL-2 melanoma, 3840 nM in the test with UACC-62 melanoma, 8.57 µM with A549 NSCLC and 5.03 µM in the test on SNB-75 CNS. The TGI in the test on SF-539 CNS is 70.9 µM; in the test with KM12 colon, above 100 µM; with ACHN renal, above 100 µM; in the test on NCI-H23 lung, above 100 µM; in the test on SN12C renal, 38.4 µM; in the test on DU-145 prostate, above 100 µM. Moreover, the TGI in the test with SK-MEL-2 melanoma was above 100 µM; in the test on UACC-62 melanoma, 31.3 µM; with A549 NSCLC, above 100 µM; in the test with SNB-75 CNS it was 75.3 µM.

Take `COc1cc(-n2cc(-c3ccc(F)cc3)[nH]c2=O)cc(OC)c1OC`: the GI50 in the test on SF-539 CNS was above 100000 nM; in the test with KM12 colon, above 100 µM; in the test with ACHN renal, above 100000 nM; in the test with NCI-H23 lung, above 100000 nM; in the test on SN12C renal, above 100000 nM; with DU-145 prostate it was above 100 µM. Moreover, the GI50 with SK-MEL-2 melanoma is above 100000 nM; in the test on UACC-62 melanoma, above 100000 nM; with A549 NSCLC, above 100 µM; in the test with SNB-75 CNS it was 31.5 µM. Also, the TGI with SF-539 CNS, in the test on KM12 colon, in the test on ACHN renal, in the test on NCI-H23 lung, in the test on SN12C renal and in the test on DU-145 prostate was above 100 µM each time. For the same molecule, the TGI in the test on SK-MEL-2 melanoma was above 100 µM; with UACC-62 melanoma, above 100 µM; in the test with A549 NSCLC, above 100 µM; in the test on SNB-75 CNS it was 86.3 µM.

Regarding `Cn1cc(-c2csc(-c3c[nH]c4ccc(F)cc34)n2)c2cnccc21`, the GI50 in the test on SF-539 CNS is 1630 nM; in the test on KM12 colon it was 1.83 µM; in the test on ACHN renal, 1740 nM; in the test on NCI-H23 lung, 1620 nM; with SN12C renal, 1720 nM; in the test on DU-145 prostate it was 1.8 µM. For the same molecule, the GI50 with SK-MEL-2 melanoma was 1870 nM; with UACC-62 melanoma, 1830 nM; with A549 NSCLC it was 1.83 µM; in the test on SNB-75 CNS, 1.5 µM. Besides, the TGI with SF-539 CNS was 3.04 µM; in the test with KM12 colon it was 3.49 µM; with ACHN renal, 3.12 µM; with NCI-H23 lung, 3.25 µM; with SN12C renal, 3.22 µM; in the test on DU-145 prostate, 3.28 µM. The TGI in the test with SK-MEL-2 melanoma came to 3.48 µM; with UACC-62 melanoma, 3.39 µM; with A549 NSCLC it was 3.42 µM; in the test on SNB-75 CNS, 2.85 µM.
